Several values for one entry are separate records, joined by “and”; a condition that tells them apart may be missing. Equal entries are not always repeated. Entries after “also recorded” stand apart in the source; their conditions may differ. Where two headings read alike, the source gives them in different places.
What was measured:
[1] = Population PK (PopPK) model using PK data from 4 Phase 2 studies; format: in vivo, human; details: irrespective of indication
Source text: • Population Pharmacokinetics Analysis of the Four Phase 2 Clinical Studies: A population PK (PopPK) model was developed using PK data from 4 Phase 2 studies (www.clinicaltrials.gov study numbers NCT00918203 (A Randomized Phase 2 Study of Human Anti-PDGFRα. Monoclonal Antibody (IMC-3G3) With Paclitaxel/Carboplatin or Paclitaxel/Carboplatin Alone in Previously Untreated Patients With Locally Advanced or Metastatic Non-Small Cell Lung Cancer), NCT01185964 (A Phase 1b/2 Randomized Phase 2 Study Evaluating the Efficacy of Doxorubicin With or Without a Human Anti-PDGFRα Monoclonal Antibody (IMC-3G3) in the Treatment of Advanced Soft Tissue Sarcoma), NCT00895180 (An Open Label, Phase 2 Study Evaluating the Safety and Efficacy of IMC-3G3 or MC-1121B in Patients With Recurrent Glioblastoma Multiforme), and NCT01316263 (A Phase 2 Study of a Human Anti-PDGFRα Monoclonal Antibody (IMC-3G3) in Previously Treated Patients With Unresectable and/or Metastatic Gastrointestinal Stromal Tumors (GIST)). […] A Randomized, Double Blind, Placebo-Controlled, Phase 3 Trial of Doxorubicin Plus Olaratumab Versus Doxorubicin Plus Placebo in Patients With Advanced Soft Tissue Sarcoma (the “Phase 3 Study”) The present invention is being further tested in the Phase 3 Study (trial number NCT02451943 available on clinicaltrials.gov https://clinicaltrials.gov/ct2/show/NCT02451943?term=ANNOUNCE&rank=1).

[2] = tested on: patients with advanced STS; test: Randomized Phase 2 Study of doxorubicin with or without olaratumab (NCT01185964): PFS, OS, ORR; format: in vivo, human; details: for median OS / median PFS: Phase 2 Study
Experimental: The Study is an open-label, multicenter, Phase 2 trial in which patients with advanced STS not amenable to treatment with surgery or radiotherapy are treated with olaratumab in combination with doxorubicin or doxorubicin alone.
Enrolled patients who meet all eligibility criteria are randomized 1:1 to one of two treatment arms. Arm A or Arm B. Arm A patients receive olaratumab in combination with doxorubicin (hereinafter the “Combination Arm”) and Ann B patients receive doxorubicin alone (hereinafter the “Doxonthicin Arm”), Randomization of this Study is performed according to a dynamic randomization algorithm using 4 pre-defined risk factors: PDGFRα expression (positive vs. negative), number of previous lines of treatment (0 vs. 1+ lines), histological tumor type (i.e., leiomyosarcoma vs. synovial sarcoma vs. other tumor type), and ECOG performance status (0-1 vs. 2). This dynamic randomization procedure is used to minimize imbalance between treatment groups. To determine tumor type and PDGFRCL expression in patients, a tumor sample from either a biopsy or previously archived tumor tissue sample is sufficient. Biopsy is required to be performed within 21 days prior to randomization; archived tissue sample must also be available within this timeframe.
Combination Arm: 66 patients randomized in the Combination Ann receive 15 mg/kg of olaratumab on Days 1 and 8 of each 21-day treatment cycle, in combination with 75 mg/m^2 doxorubicin administered on Day 1 of each cycle. (Note: if premedication is required prior to the first doxorubicin infusion, this is to be done after the completion of olaratumab infusion, not before the olaratumab infusion. This premedication may be administered within the hour that follows completion of the olaratumab infusion.) The actual (not planned) administration of each doxorubicin infusion defines Day 1 of each 21-day treatment cycle. The combination treatment just described is to continue for up to 8 cycles at the investigator's discretion. During Cycles 5 through 8, patients being treated with doxorubicin may also be administered 750 mg/m^2 dexrazoxane on Day 1 of each cycle, (at the investigator's discretion) prior to doxorubicin on Day 1 of each 21-day cycle. If the dose of doxorubicin is reduced at any point in the Study, the dose of dexrazoxane is to be reduced accordingly, maintaining a dosage ratio of 10:1. For example, if doxorubicin is reduced to 60 mg/m^2, then dexrazoxane is to be reduced to 600 mg/m^2. Doxorubicin may be administered within the hour that follows completion of the olaratumab infusion. In the absence of PD or other withdrawal criteria, patients in the Combination Arm who have completed eight cycles of therapy are to receive subsequent olaratumab monotherapy, administered on Days 1 and 8 of each 21-day cycle. Furthermore, if doxorubicin is discontinued (e.g., for reasons of toxicity) prior to end of cycle 8 and in the absence of withdrawal criteria, patients may continue to receive olaratumab monotherapy. For patients who discontinue olaratumab during the first 8 cycles of treatment, doxorubicin may be continued (for up to 8 cycles), provided no withdrawal criteria are met.
Doxorubicin Arm: 67 patients randomized in the Doxorubicin Arm receive 75 mg/m^2 doxorubicin on Day 1 of each cycle, for up to 8 cycles at the investigator's discretion. The actual (not planned) administration of each doxorubicin infusion defines Day 1 of each 21-day treatment cycle. During cycles 5 through 8, 750 mg/m^2 dexrazoxane may also be administered on Day 1 of each cycle, (at the investigator's discretion) prior to doxorubicin on Day 1 of each 21-day cycle. If the dose of doxorubicin is reduced at any point in the Study, the dose of dexrazoxane is to be reduced accordingly, maintaining a dosage ratio of 10:1. For example, if doxorubicin is reduced to 60 mg/m^2, then dexrazoxane is to be reduced to 600 mg/m^2. […]

[3] = tested on: patients with advanced STS; test: Time-to-event (survival) model of the effect of olaratumab serum levels on PFS/OS hazard; format: in vivo, human; details: Cmin1-based and Cavg-based models
Source text: Further, FIG. 1, illustrates the predicted effect of olaratumab on HR for PFS. In FIG. 1. PFS as predicted by Cmin1-based model is shown in the left panel and the Cavg-based model is shown in the right panel. The solid red lines describe the change in HR as a function of Cmin1 and Cavg; the grey histograms describe the distribution of olaratumab Cmin1 and Cavg in the Study experimental arm together with their quartiles (dashed blue lines) the green dashed lines indicate ECmin150 and ECavg50.

[4] = tested on: patients with advanced STS; test: Matched case-control exposure-response analysis of OS and PFS across quartiles of olaratumab serum levels; format: in vivo, human
Experimental: (§1) Pharmacokinetics and Exposure-response Analysis of The “Study”: The PFS, OS, PK and safety data from patients who received olaratumab in the Study, as discussed above, were analyzed.
(§2) The effect of olaratumab serum levels is explored using average serum concentration (Cavg) and trough serum concentration after cycle 1 (Cmin1). The PFS and OS data are analyzed using a matched case-control (MCC) analysis across quartiles of olaratumab serum levels and a time-to-event (survival) model with a constant baseline hazard and a Hill function to describe the effect of olaratumab. The rate of treatment-emergent adverse events (TEAEs) is compared across quartiles of olaratumab exposure.

[5] = Olaratumab serum concentrations (pharmacokinetics) in the Study
Experimental: Serum levels can be measured by an enzyme-linked immunosorbent assay; a test that uses antibodies and color change to identify and quantify a substance.
as §1, §2

[6] = parameters: species or system human; details: in vivo
Source text: The rate of treatment-emergent adverse events (TEAEs) is compared across quartiles of olaratumab exposure.

[7] = Cavg Q1 (56 < 134.4) μg/mL, 15 patients per group
[8] = Cavg Q3 (≥175.2-<249.9) μg/mL, 15 patients per group
[9] = Cavg Q4 (≥249.9-347.3) μg/mL, 16 patients per group
[10] = Cmin1 Q1 (12.3-<62.8) μg/mL, 15 patients per group
[11] = Cmin1 Q2 (≥62.8-<86.9) μg/mL, 16 patients per group
[12] = Cmin1 Q4 (≥105.6-188.1) μg/mL, 16 patients per group

For olaratumab, the “cycle in which steady-state olaratumab serum levels are achieved (PopPK model)” value [1] was no less than 3 Cycle, the “stratified HR for overall survival” value ([2]; Combination Arm vs Doxorubicin Arm, final analysis) was 0.46 and the “median OS” value ([2]; final analysis) was 26.5 months. The “median PFS” value ([2]; final analysis) was 6.6 months, the “stratified HR for progression-free survival” value ([2]; olaratumab plus doxorubicin vs doxorubicin, final analysis) was 0.672 and the “predicted effect of olaratumab on HR for PFS (FIG. 1)” value [3] was “not predicted to change until the Cmin1 or Cavg reaches values corresponding to the 25th percentile of their distribution in the study”. For the same molecule, the “OS improvement in the lowest exposure quartile” value ([4]; Cmin1<63 μg/mL, N=15) was “no improvement in OS; also recorded: did not show OS improvement; also recorded: did not have OS”, the “PFS and OS improvement in the upper quartiles of olaratumab serum exposure” value ([4]; regardless of Cmin at end of cycle 1 or average serum concentration) was “greater improvement in progression-free survival and overall survival” and the “mean maximum serum concentration (Cmax) after the first dose” value ([5]; 15 mg/kg, cycle 1) was 284 µg/mL. The “mean maximum serum concentration (Cmax) after the second dose” value ([5]; 15 mg/kg, cycle 1) was 293 µg/mL, the Cavg range ([5]; Overall, n = 62, average over entire treatment) was 56.0 to 347.3 µg/mL and the Cmin1 range ([5]; Overall, n = 62, trough at the end of Cycle 1) was 12.3 to 188.1 µg/mL. For the same molecule, the “mean trough serum concentration (Cmin) at the end of the cycle” value ([5]; cycle 1) was 66.5 µg/mL, the “individual apparent terminal elimination half-life” value ([5]; during cycle 3) was 6.67 days and 14.4 days and the “cycle in which steady state is reached” value ([5]; in vivo) was 3 cycle. For the same molecule, the “Mucositis Grade <=2 (consolidated TEAE), number of patients” value [6] was 32, the “Mucositis Grade <=2, % (consolidated TEAE)” value [6] was “(51.6) %” and the “Mucositis Grade >2 (consolidated TEAE), number of patients” value [6] was 2. The “Mucositis Grade >2, % (consolidated TEAE)” value [6] was “(3.2) %”, the “Mucositis Grade >=4 (consolidated TEAE), number of patients” value [6] was 0 and the “Neutropenia Grade <=2 (consolidated TEAE), number of patients” value [6] was 3. The “Neutropenia Grade <=2, % (consolidated TEAE)” value [6] was “(4.8) %”, the “Neutropenia Grade >2 (consolidated TEAE), number of patients” value [6] was 35 and the “Neutropenia Grade >2, % (consolidated TEAE)” value [6] was “(56.5) %”. For the same molecule, the “Neutropenia Grade >=4 (consolidated TEAE), number of patients” value [6] was 23, the “Neutropenia Grade >=4, % (consolidated TEAE)” value [6] was “(37.1) %” and the “TEAE Overall Grade <=2, %” value [6] was “(19.4) %”. The “TEAE Overall Grade <=2, number of patients” value [6] was 12, the “TEAE Overall Grade >2, %” value [6] was “(79.0) %” and the “TEAE Overall Grade >2, number of patients” value [6] was 49. For the same molecule, the “TEAE Overall Grade >=4, %” value [6] was “(40.3) %” and the “TEAE Overall Grade >=4, number of patients” value [6] was 25.
With COc1cccc2c1C(=O)c1c(O)c3c(c(O)c1C2=O)C[C@@](O)(C(=O)CO)C[C@@H]3O[C@H]1C[C@H](N)[C@H](O)[C@H](C)O1 [doxorubicin] the “median OS” value ([2]; final analysis) was 14.7 months, the “median PFS” value ([2]; final analysis) was 4.1 months and the “median progression-free survival, blinded independent retrospective review” value ([2]; in vivo) was 4.4 months. For the same molecule, the “objective response rate, independent assessment” value ([2]; in vivo) was 7.5%, the objective response rate ([2]; investigator assessment, RECIST 1.1) was 11.9% and the “Number of events, overall survival” value [4, 7] was 15/13. The “Number of events, progression-free survival” value [4, 7] was 15/14, the “Number of events, progression-free survival” value ([4]; Cavg Q2 (≥134.4-<175,2) μg/mL, 16 patients per group) was 16/10 and the “Number of events, overall survival” value ([4]; Cavg Q2 (≥134.4-<175.2) μg/mL, 16 patients per group) was 16/14. The “Number of events, overall survival” value [4, 8] was 15/7, the “Number of events, progression-free survival” value [4, 8] was 15/8 and the “Number of events, overall survival” value [4, 9] was 16/11. The “Number of events, progression-free survival” value [4, 9] was 16/12, the “Number of events, overall survival” value [4, 10] was 15/12 and the “Number of events, progression-free survival” value [4, 10] was 15/11. For the same molecule, the “Number of events, overall survival” value [4, 11] was 16/13, the “Number of events, progression-free survival” value [4, 11] was 16/9 and the “Number of events, overall survival” value ([4]; Cmin1 Q3 (≥86.9-<105.6) μg/mL, 15 patients per group) was 15/8. The “Number of events, progression-free survival” value ([4]; Cmin1 Q3 (≥86.9=<105.6) μg/mL, 15 patients per group) was 15/10, the “Number of events, overall survival” value [4, 12] was 16/10 and the “Number of events, progression-free survival” value [4, 12] was 16/11. For the same molecule, the “Mucositis Grade <=2 (consolidated TEAE), number of patients” value ([6]; human) was 20, the “Mucositis Grade <=2, % (consolidated TEAE)” value ([6]; human) was “(30.8) %” and the “Mucositis Grade >2 (consolidated TEAE), number of patients” value ([6]; human) was 3. The “Mucositis Grade >2, % (consolidated TEAE)” value ([6]; human) was “(4.6) %”, the “Mucositis Grade >=4 (consolidated TEAE), number of patients” value ([6]; human) was 0 and the “Neutropenia Grade <=2 (consolidated TEAE), number of patients” value ([6]; human) was 3. The “Neutropenia Grade <=2, % (consolidated TEAE)” value ([6]; human) was “(4.6) %”, the “Neutropenia Grade >2 (consolidated TEAE), number of patients” value ([6]; human) was 22 and the “Neutropenia Grade >2, % (consolidated TEAE)” value ([6]; human) was “(33.8) %”. For the same molecule, the “Neutropenia Grade >=4 (consolidated TEAE), number of patients” value ([6]; human) was 17, the “Neutropenia Grade >=4, % (consolidated TEAE)” value ([6]; human) was “(26.2) %” and the “TEAE Overall Grade <=2, %” value ([6]; human) was “(29.2) %”. The “TEAE Overall Grade <=2, number of patients” value ([6]; human) was 19, the “TEAE Overall Grade >2, %” value ([6]; human) was “(69.2) %” and the “TEAE Overall Grade >2, number of patients” value ([6]; human) was 45. The “TEAE Overall Grade >=4, %” value ([6]; human) was “(30.8) %” and the “TEAE Overall Grade >=4, number of patients” value ([6]; human) was 20.

Reference: US20210113692A1, “DOSING REGIMEN” (IMCLONE, LLC, priority 2016, published 2021)
